# Laboratory results reported in patent publication US8211929B2, “Pyrimidine derivatives as kinase modulators and method of use” (Exelixis, Inc., priority 2004, dated 2012).
# Where two headings read alike, the source gives them in different places.
# Columns and labels:
# IGF 3P = biological target: T1, IGF 3P (Homo sapiens, UniProt P08069); assay: IGF1R kinase assay (LCCA), IGF 3P; assay type: biochemical
# T1 construct: human IGF1R kinase domain residues M954-C1367; made in house; host or cells: baculovirus expression (insect cells)
# T1 sequence (P08069 954-1367): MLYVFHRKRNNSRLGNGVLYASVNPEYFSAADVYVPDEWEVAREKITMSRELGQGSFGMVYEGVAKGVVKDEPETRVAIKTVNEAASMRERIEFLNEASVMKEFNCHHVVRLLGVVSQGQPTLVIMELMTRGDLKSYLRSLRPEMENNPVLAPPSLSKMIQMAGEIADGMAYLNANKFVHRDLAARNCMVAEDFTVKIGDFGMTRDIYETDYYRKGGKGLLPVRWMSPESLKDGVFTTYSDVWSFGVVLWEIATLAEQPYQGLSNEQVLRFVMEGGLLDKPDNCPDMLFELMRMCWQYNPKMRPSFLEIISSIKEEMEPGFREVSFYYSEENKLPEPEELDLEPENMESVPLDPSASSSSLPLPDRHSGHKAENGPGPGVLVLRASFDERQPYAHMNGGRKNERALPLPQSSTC
# Method in brief: (§1)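 Read-out is percent ATP remaining, detected by luciferase-luciferin luminescence after a 2 h ambient reaction. Reaction contained 4 nM IGF1R kinase domain (residues M954-C1367, baculovirus-made), 3 μM ATP (near KM), 4 μM poly EY, pH 7.5 with Mg2+/Mn2+. Ten inhibitor concentrations; IC50 by Hill-type curve fit.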
# [1] = biological target: T2, (Homo sapiens, UniProt P08069); assay: IGF1R kinase assay (LCCA), IGF 0P; assay type: biochemical
# T2 construct: human IGF1R kinase domain residues M954-C1367; made in house; host or cells: baculovirus expression (insect cells)
# T2 sequence (P08069 954-1367): as above
# Method in brief: as §1
# [2] = IGF1R kinase LCCA assay, IGF 3P
# [3] = IGF1R kinase LCCA assay, IGF 0P
Structure (SMILES),IC50 (IGF 3P; IGF1R kinase LCCA assay) [nM],IC50 ([1]; IGF1R kinase LCCA assay) [nM],further results
c1ccc(-c2cc(CNc3nc(Nc4cc(C5CC5)[nH]n4)cc(N4CCNCC4)n3)on2)cc1 [Example 499],< 50,50 to 500,–
Cc1cc(Nc2cc(C3CC3)[nH]n2)nc(NCc2cc(-c3ccc(F)cc3)no2)n1 [Example 500],< 50,50 to 500,–
c1ccc(-c2cc(CNc3nc(Nc4cc(C5CC5)[nH]n4)cc(OCCN4CCOCC4)n3)on2)cc1 [Example 501],< 50,50 to 500,–
CN1CCN(CCNc2cc(Nc3cc(C4CC4)[nH]n3)nc(NCc3cc(-c4ccccc4)no3)n2)CC1 [Example 509],< 50,50 to 500,–
O=C(c1cc(Nc2cc(C3CC3)[nH]n2)nc(NCc2cc(-c3ccccc3)no2)n1)N1CCOCC1 [Example 512],50 to 500,50 to 500,–
c1ccc(-c2cc(CNc3nc(NCCN4CCOCC4)cc(Nc4cc(C5CC5)[nH]n4)n3)on2)cc1 [Example 513],< 50,50 to 500,–
c1ccc(-c2cc(CNc3nc(Nc4cc(C5CC5)n[nH]4)cc(OCCN4CCCC4)n3)on2)cc1 [Example 514],–,–,"IC50 (IGF 3P; [2]): < 50 nM; IC50 [1, 3]: 50 to 500 nM"
CN1CCC(Oc2cc(Nc3cc(C4CC4)[nH]n3)nc(NCc3cc(-c4ccccc4)no3)n2)C1 (centres unmarked) [Example 515],< 50,50 to 500,–
c1ccc(-c2cc(CNc3nc(NCCN4CCCCC4)cc(Nc4cc(C5CC5)[nH]n4)n3)on2)cc1 [Example 516],< 50,50 to 500,–
CC(C)c1cc(Nc2cc(OCCN(C)C)nc(NCc3cc(-c4ccccc4)no3)n2)n[nH]1 [Example 518],< 50,50 to 500,–
O=C(NCCN1CCCC1)c1cc(Nc2cc(C3CC3)[nH]n2)nc(NCc2cc(-c3ccccc3)no2)n1 [Example 521],< 50,50 to 500,–
CN1CCN(C(=O)c2cc(Nc3cc(C4CC4)[nH]n3)nc(NCc3cc(-c4ccccc4)no3)n2)CC1 [Example 522],< 50,50 to 500,–
Cc1cc(Nc2cc(C3CC3)[nH]n2)nc(NCc2cc(-c3ccccc3Br)no2)n1 [Example 525],50 to 500,50 to 500,–
Cc1cc(Nc2cc(C(C)C)[nH]n2)nc(NCc2cc(C(C)C)no2)n1 [Example 526],< 50,500 to 5000,–
CN1CCN(CCNC(=O)c2cc(Nc3cc(C4CC4)[nH]n3)nc(NCc3cc(-c4ccccc4)no3)n2)CC1 [Example 527],50 to 500,50 to 500,–
Cc1cc(Nc2cc(C)nc(NCc3cc(-c4ccccc4)no3)n2)[nH]n1 [Example 528],50 to 500,50 to 500,–
CCN(CC)CCCNC(=O)c1cc(Nc2cc(C3CC3)[nH]n2)nc(NCc2cc(-c3ccccc3)no2)n1 [Example 529],50 to 500,50 to 500,–
CCN(CC)CCNC(=O)c1cc(Nc2cc(C3CC3)[nH]n2)nc(NCc2cc(-c3ccccc3)no2)n1 [Example 530],< 50,50 to 500,–
O=C(NCCN1CCCCC1)c1cc(Nc2cc(C3CC3)[nH]n2)nc(NCc2cc(-c3ccccc3)no2)n1 [Example 531],< 50,50 to 500,–
O=C(NCCN1CCOCC1)c1cc(Nc2cc(C3CC3)[nH]n2)nc(NCc2cc(-c3ccccc3)no2)n1 [Example 533],50 to 500,50 to 500,–
Brc1cnc(Nc2ccc(N3CCOCC3)cc2)nc1Nc1ccc2c(c1)CNCC2 [Example 534],< 50,500 to 5000,–
Cc1cc(Nc2cc(C(C)C)[nH]n2)nc(NCc2cc(-c3cccc(Cl)c3)no2)n1 [Example 535],50 to 500,50 to 500,–
Cc1cc(Nc2cc(C3CC3)[nH]n2)nc(NCc2cnc[nH]2)n1 [Example 536],500 to 5000,500 to 5000,–
COC(=O)C1CCc2cc(Nc3nc(C)cc(Nc4cc(C5CC5)n[nH]4)n3)ccc2N1 (centres unmarked) [Example 537],500 to 5000,500 to 5000,–
Cc1cc(Nc2cc(C3CC3)[nH]n2)nc(NCc2cc(-c3cccc(Cl)c3)no2)n1 [Example 538],50 to 500,50 to 500,–
CNCCc1ccc(Nc2nc(C)cc(Nc3cc(C4CC4)n[nH]3)n2)cc1 [Example 540],500 to 5000,500 to 5000,–

Structure (SMILES),IC50 (IGF 3P; IGF1R kinase LCCA assay) [nM],IC50 ([1]; IGF1R kinase LCCA assay) [nM],further results
CCN(CC)CCNC(=O)CCc1ccc(Nc2ncc(Br)c(Nc3ccccc3)n2)cc1 [Example 541],< 50,50 to 500,–
Cc1cc(Nc2cc(C3CC3)[nH]n2)nc(NCc2cc(-c3cccc(Br)c3)no2)n1 [Example 542],50 to 500,50 to 500,–
CC(C)c1cc(CNc2nc(Cl)cc(Nc3cc(C(C)C)[nH]n3)n2)on1 [Example 544],< 50,500 to 5000,–
Cc1cc(Nc2cc(C3CC3)n[nH]2)nc(Nc2ccc3c(c2)CNCC3)n1 [Example 545],50 to 500,500 to 5000,–
Cc1cc(Nc2cc(C3CC3)n[nH]2)nc(Nc2ccc3c(c2)CC(N)C3)n1 (centres unmarked) [Example 546],50 to 500,500 to 5000,–
Cc1cc(Nc2cc(C3CC3)n[nH]2)nc(Nc2ccc(CCN)cc2)n1 [Example 550],50 to 500,500 to 5000,–
Cc1cc(Nc2cc(C3CC3)n[nH]2)nc(Nc2ccc(CCN3CCCC3)cc2)n1 [Example 551],50 to 500,500 to 5000,–
Cc1cc(Nc2cc(C3CC3)n[nH]2)nc(Nc2ccc(C3CCNCC3)cc2)n1 [Example 553],500 to 5000,500 to 5000,–
Cc1cc(Nc2cc(C3CC3)n[nH]2)nc(Nc2ccc(CCN3CCCCC3)cc2)n1 [Example 554],500 to 5000,500 to 5000,–
Cc1cc(Nc2cc(C3CC3)[nH]n2)nc(NCc2cc(C(=O)N3CCN(C)CC3)no2)n1 [Example 555],500 to 5000,500 to 5000,–
Cc1cc(Nc2cc(C3CC3)n[nH]2)nc(Nc2ccc(CCN3CCOCC3)cc2)n1 [Example 556],500 to 5000,500 to 5000,–
CC(C)c1cc(CNc2nc(Nc3cc(C4CC4)[nH]n3)cc(N3CCN[C@H](C)C3)n2)on1 [Example 557],–,–,"IC50 (IGF 3P; [2]): < 50 nM; IC50 [1, 3]: 50 to 500 nM"
CC(C)c1cc(CNc2nc(NCCN3CCN(C)CC3)cc(Nc3cc(C(C)C)[nH]n3)n2)on1 [Example 558],< 50,50 to 500,–
CC(C)c1cc(CNc2nc(NCCN3CCN(C)CC3)cc(Nc3cc(C4CC4)[nH]n3)n2)on1 [Example 559],< 50,500 to 5000,–
c1ccc(-c2cc(CNc3nc(CN4CCOCC4)cc(Nc4cc(C5CC5)[nH]n4)n3)on2)cc1 [Example 561],50 to 500,50 to 500,–
Cc1cc(Nc2cc(C3CC3)[nH]n2)nc(NCc2ccc(-c3ccc(Cl)cc3)s2)n1 [Example 562],500 to 5000,500 to 5000,–
Cc1cc(Nc2cc(C3CC3)[nH]n2)nc(NCc2ccco2)n1 [Example 563],500 to 5000,500 to 5000,–
Cc1cc(Nc2cc(C3CC3)n[nH]2)nc(Nc2ccc3c(c2)CN(C(=O)OC(C)(C)C)CC3)n1 [Example 565],500 to 5000,500 to 5000,–
Cc1cc(Nc2cc(C3CC3)n[nH]2)nc(Nc2ccc(C3CCN(C(=O)OC(C)(C)C)CC3)cc2)n1 [Example 566],500 to 5000,500 to 5000,–
Cc1cc(Nc2ccccc2)nc(Nc2ccc(N3CCOCC3)cc2)n1 [Example 567],500 to 5000,500 to 5000,–
Cc1cc(Nc2cc(C3CC3)n[nH]2)nc(Nc2ccc(CCNC(=O)OC(C)(C)C)cc2)n1 [Example 568],500 to 5000,500 to 5000,–
Cc1cc(Nc2cc(C3CC3)n[nH]2)nc(Nc2ccc(N3CCN(C)CC3)cc2)n1 [Example 569],500 to 5000,500 to 5000,–
Cc1cc(Nc2cc(C3CC3)n[nH]2)nc(NCc2nc(C(=O)NCCc3cccc(Cl)c3)cs2)n1 [Example 570],500 to 5000,500 to 5000,–
Cc1cc(Nc2cc(C3CC3)n[nH]2)nc(NCc2nc(C(=O)NCCc3ccccc3F)cs2)n1 [Example 571],500 to 5000,500 to 5000,–
Cc1cc(Nc2cc(C3CC3)[nH]n2)nc(NC(c2ccccc2)c2nc(-c3ccccc3)co2)n1 (centres unmarked) [Example 572],500 to 5000,500 to 5000,–
"Cc1cc(Nc2cc(C3CC3)[nH]n2)nc(OCc2cc(-c3ccccc3)no2)n1 [Example 584, N-(5-cyclopropyl-1H-pyrazol-3-yl)-6-methyl-2-{[(3-phenylisoxazol-5-yl)methyl]oxy}pyrimidin-4-amine]",–,–,IC50 (IGF 3P): 500 to 5000 nM; IC50 [1]: 50 to 500 nM
